Experimental data as given in patent US5187103A, “Colorimetric method and reagent for the assay of lithium in a test sample” (Miles Inc., priority 1991, dated 1993).

How the values were obtained:
[1] = Ion selectivity and sensitivity of larger cavity cryptand analogs
[2] = pKa in 10% DEGMEE-water, determined spectrophotometrically (Table II); assay type: physicochemical; conditions: for pKa: spectrophotometric
[3] = UV-VIS spectra of the cryptand in complexation with various ions (Table I); assay type: physicochemical
Method: (§1) The UV-VIS spectra of p-nitrophenylazophenol (1.1.0) cryptand in complexation with various ions, i.e. Na^+ K^+, and Li^+, were determined in 1 to 2×10^-4 M solutions of the cryptand in 2 to 50% volume to volume (v/v) DEGMEE in water. A 1×10^-2 M stock solution of the cryptand was prepared in DEGMEE. Typically, the solutions were prepared as follows: for the spectral characteristics in 10% v/v DEGMEE, 0.2 ml of the stock solution was added to 0.8 ml DEGMEE. The diluted cryptand was quantitatively transferred to 9.0 ml of the appropriate reagent and mixed. 1N HCl was used to obtain the acid form (HL) and 1M TMAOH for the base form of the cryptand which is designated in the following tables as L. Tne resulting solutions were scanned from 700 to 300 nm on a Beckman DU-8 spectrophotometer. The spectra of the cation complexes of p-nitrophenylazophenol (1.1.0) cryptand in 10% v/v DEGMEE/1M TMAOH were obtained by adding 0.02 ml LiCl, KCl, NaCl, all 1N to their respective cuvettes containing 2 ml of reagent and scanned from 700 to 300 nm.
Table I records the wavelength maxima and absorptivities of p-nitrophenylazophenol (1.1.0) cryptand when exposed to Na^+, K^+ and Li^+ ions in 10% v/v DEGMEE.

[4] = Effect of non-ionic surfactant on wavelength maxima and absorptivities (first Table IV); assay type: physicochemical; conditions: Brij-35 and Triton X-100 at 1% w/v; cryptand and its lithium complex
From the text: Non-ionic surfactants are known to interact with monoazo dyes producing a disturbance of the electronic spectrum.

[5] = Effect of organic solvent (DEGMEE) concentration on sensitivity and selectivity; conditions: 2.5% DEGMEE
Method: as §1
However, high concentration of solvent also affects the selectivity; at 25% DEGMEE, interference by 140 mM Na^+ corresponds to 0.1 mM Li^+, which is not acceptable for clinical purposes. The selectivity requirements of the lithium assay are high, in certain cases where the concentration of lithium is near 0.1 mM, the molar ratio of Li^+ :Na^+ is about 1:1500. […]

[6] = Spectral response to lithium (analytical wavelength); assay type: physicochemical
Method: as §1

[7] = Selectivity for Li^+ over Na^+ and other cations (slopes of response curves); conditions: sample to reagent ratio 1:40
From the text: By taking the ratio of the slope of the respective response curves, one obtains approximate selectivity of 4000:1 for Li^+ /Na^+.

[8] = Effect of pH on response to cations in 10% v/v DEGMEE (Table III); assay type: physicochemical
Method: as §1
A zwitterionic buffer CAPS was used (Table III).

[9] = 10% v/v DEGMEE, HL in 1N HCl, L and complexes in 1M TMAOH

## O=[N+]([O-])c1ccc(N=Nc2cc3c(O)c(c2)CCN2CCOCCOCCN(CCOCCOCC2)CC3)cc1 [(2.2.0) cryptand, reference compound]
[1]; effect of increased cavity size
  selectivity and sensitivity: more selective for potassium over sodium and lithium
[2]
  pKa: 11.1

## O=[N+]([O-])c1ccc(N=Nc2cc3c(O)c(c2)CCN2CCOCCN(CCOCC2)CC3)cc1 [HL]
[3]; [9]
  λmax 1: 494 nm
  λmax 2: 363 nm
[3]; absorptivity at λmax 1, 10% v/v DEGMEE
  ε 1: 8,800 M^-1 cm^-1
[3]; absorptivity at λmax 2, 10% v/v DEGMEE
  ε 2: 8,000 M^-1 cm^-1

## O=[N+]([O-])c1ccc(N=Nc2cc3c(O)c(c2)CCCN2CCOCCN(CCC3)CCOCC2)cc1 [extended (1.1.0) cryptand]
[1]; extraction mode
  response to lithium: very good response to lithium in the extraction mode
[2]
  pKa: 11.5

## O=[N+]([O-])c1ccc(N=Nc2cc3c(O)c(c2)CCN2CCOCCN(CCOCC2)CC3)cc1 [p-nitrophenylazophenol (1.1.0) cryptand]
[3]; acid form
  wavelength maxima and absorptivities of acid form: two wavelength maxima (Table I) of equivalent absorptivities
[4]
  effect of surfactant on λmax and absorptivities: substantial bathochromic shift of the λmax and an increase in the absorptivities
[5]
  reduction of response to lithium: 25%
[6]
  wavelength of decrease in absorbance with lithium: 600 nm
  wavelength of increase of the lithium complex: 534 nm
[7]
  selectivity over sodium: almost total selectivity over sodium
[8]
  shift and absorptivity change with pH: bathochromic shift with concurrent increase in absorptivity
[2]
  pKa compared with larger cavity analogs or usual: Higher than usual pKa
  pKa: 12.6
